# Experimental data: patent US20230055237A1, “COMPOUNDS AND METHODS FOR THE TREATMENT OF CYSTIC FIBROSIS” (Flatley Discovery Lab, LLC, priority 2019, published 2023)
# Molecular target: T1, CFTR (Homo sapiens, UniProt P13569, DEL508-508)
# T1 construct: Primary CF airway epithelial cells were obtained from the UNC Cystic Fibrosis Tissue Procurement and Cell Culture Core; host or cells: primary CF airway epithelial cells, differentiated at the air-liquid interface
# Experiment: Equivalent current assay in primary CF airway epithelial cells (NAUC, combination with 1st site corrector FDL169 or VX-809)
# Format: cell-based
# Conditions: 37° C., 24 h
# [1] = test compound 1 μM in combination with 1st site corrector VX-809 (3 μM)
# [2] = test compound 3 μM in combination with 1st site corrector VX-809 (3 μM)
# [3] = test compound 10 μM in combination with 1st site corrector VX-809 (3 μM)
# [4] = test compound 1 μM in combination with 1st site corrector FDL169 (3 μM)
# [5] = test compound 3 μM in combination with 1st site corrector FDL169 (3 μM)
# [6] = test compound 10 μM in combination with 1st site corrector FDL169 (3 μM)
# T1 sequence (P13569 with tags, fused parts or gaps DEL508-508): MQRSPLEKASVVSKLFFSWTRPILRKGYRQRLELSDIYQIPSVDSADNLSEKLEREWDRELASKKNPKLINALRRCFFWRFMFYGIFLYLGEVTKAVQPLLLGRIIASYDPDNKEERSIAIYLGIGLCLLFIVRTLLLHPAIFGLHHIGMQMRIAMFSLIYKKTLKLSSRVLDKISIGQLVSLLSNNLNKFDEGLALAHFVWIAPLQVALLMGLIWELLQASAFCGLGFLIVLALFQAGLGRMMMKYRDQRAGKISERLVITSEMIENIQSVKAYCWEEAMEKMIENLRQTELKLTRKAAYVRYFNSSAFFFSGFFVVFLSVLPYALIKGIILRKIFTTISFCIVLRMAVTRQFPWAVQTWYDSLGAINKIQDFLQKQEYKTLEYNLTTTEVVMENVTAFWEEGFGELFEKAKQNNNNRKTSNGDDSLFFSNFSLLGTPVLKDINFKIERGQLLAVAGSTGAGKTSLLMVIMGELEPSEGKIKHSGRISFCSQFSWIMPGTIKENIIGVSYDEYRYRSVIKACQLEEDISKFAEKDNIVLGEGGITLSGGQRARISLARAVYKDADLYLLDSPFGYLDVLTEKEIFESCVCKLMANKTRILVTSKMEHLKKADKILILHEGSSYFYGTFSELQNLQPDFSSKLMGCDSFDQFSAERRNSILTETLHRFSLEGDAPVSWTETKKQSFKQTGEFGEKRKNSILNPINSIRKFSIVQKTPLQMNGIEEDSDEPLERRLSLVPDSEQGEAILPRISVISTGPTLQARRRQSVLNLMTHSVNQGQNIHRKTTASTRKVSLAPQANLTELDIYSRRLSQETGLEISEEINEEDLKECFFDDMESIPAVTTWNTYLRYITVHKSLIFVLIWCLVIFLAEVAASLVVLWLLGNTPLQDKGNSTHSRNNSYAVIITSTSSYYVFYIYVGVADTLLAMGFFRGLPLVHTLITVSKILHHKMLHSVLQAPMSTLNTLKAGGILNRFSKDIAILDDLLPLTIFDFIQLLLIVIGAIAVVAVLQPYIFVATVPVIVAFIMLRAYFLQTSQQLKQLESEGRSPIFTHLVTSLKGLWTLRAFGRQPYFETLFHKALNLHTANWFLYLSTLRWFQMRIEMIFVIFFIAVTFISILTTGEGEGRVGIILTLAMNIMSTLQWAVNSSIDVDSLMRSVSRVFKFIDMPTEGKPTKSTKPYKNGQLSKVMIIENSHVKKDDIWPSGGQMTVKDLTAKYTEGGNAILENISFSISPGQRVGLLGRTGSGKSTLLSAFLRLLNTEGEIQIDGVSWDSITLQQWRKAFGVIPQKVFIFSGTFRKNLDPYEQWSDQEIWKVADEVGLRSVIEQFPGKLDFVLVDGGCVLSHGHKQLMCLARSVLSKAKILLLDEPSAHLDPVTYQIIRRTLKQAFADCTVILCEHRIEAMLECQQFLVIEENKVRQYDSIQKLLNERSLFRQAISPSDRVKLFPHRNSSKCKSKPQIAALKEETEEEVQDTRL
SMILES,Nauc @ 1 μM [1],Nauc @ 3 μM [2],Nauc @ 10 μM [3],Nauc @ 1 μM [4],Nauc @ 3 μM [5],Nauc @ 10 μM [6]
O=C(Nc1cc(Cl)cc(Cl)c1)C1C(C(F)(F)c2ccc(C(F)(F)F)cc2)NC2(C(=O)Nc3c(Cl)cc(Cl)cc32)C1C(=O)O (stereo not drawn) [Example 73.c],+ (NAUC “+” refers to an observed NAUC <140% of positive control),+ (NAUC “+” refers to an observed NAUC <140% of positive control),+++ (NAUC “+++” refers to an observed NAUC>170% of positive control),,,
O=C(Nc1cc(Cl)cc(Cl)c1)C1CN(C(=O)NCc2ccccc2)C2(C(=O)Nc3c(Cl)cc(Cl)cc32)C1C(=O)O (stereo not drawn) [Example 31],,+ (NAUC “+” refers to an observed NAUC <140% of positive control),+++ (NAUC “+++” refers to an observed NAUC>170% of positive control),,,
O=C(Nc1ccc2ccccc2n1)[C@H]1[C@H]2CC(F)(F)CN2[C@]2(C(=O)Nc3c(Cl)cc(Cl)cc32)[C@H]1C(=O)O [Example 113],+ (NAUC “+” refers to an observed NAUC <140% of positive control),+ (NAUC “+” refers to an observed NAUC <140% of positive control),+ (NAUC “+” refers to an observed NAUC <140% of positive control),,,
"CC(=O)OCOC(=O)[C@@H]1[C@@H](C(=O)N(C)c2cc(Cl)cc(Cl)c2)[C@H]2CC(F)(F)CN2[C@]12C(=O)Nc1c(Cl)cc(Cl)cc12 (single isomer, unassigned) [Example 256a]",,,+++ (NAUC “+++” refers to an observed NAUC>170% of positive control),,,
CN(C(=O)[C@H]1[C@H]2CC(F)(F)CN2C2(C(=O)Nc3c(Cl)cc(Cl)cc32)[C@H]1C(=O)O)c1cc(Cl)c(OC(F)F)c(Cl)c1 (stereo partly drawn) [Example 290],++ (NAUC “++” refers to an observed NAUC 170-140% of positive control),+++ (NAUC “+++” refers to an observed NAUC>170% of positive control),+++ (NAUC “+++” refers to an observed NAUC>170% of positive control),,,
C[C@]1(O)CC2C(C(=O)Nc3cc(Cl)cc(Cl)c3)C(C(=O)O)C3(C(=O)Nc4c(Cl)cc(Cl)cc43)N2C1 (stereo partly drawn) [Example 3],,+++ (NAUC “+++” refers to an observed NAUC>170% of positive control),+++ (NAUC “+++” refers to an observed NAUC>170% of positive control),,,
O=C(O)[C@H]1[C@@H](C(=O)N(CC2(C(F)(F)F)CC2)c2cc(Cl)cc(Cl)c2)[C@H]2CC(F)(F)CN2[C@]12C(=O)Nc1c(Cl)cc(Cl)cc12 [Example 155],,,,+++ (NAUC “+++” refers to an observed NAUC>170% of positive control),+++ (NAUC “+++” refers to an observed NAUC>170% of positive control),+ (NAUC “+” refers to an observed NAUC <140% of positive control)
Cn1c(NC(=O)[C@H]2[C@H]3CC(F)(F)CN3[C@]3(C(=O)Nc4c(Cl)cc(Cl)cc43)[C@H]2C(=O)O)nc2ccccc21 [Example 139],,,,+ (NAUC “+” refers to an observed NAUC <140% of positive control),+ (NAUC “+” refers to an observed NAUC <140% of positive control),
"Cn1ccnc1NC(=O)[C@H]1[C@@H](C(=O)Nc2cc(Cl)cc(Cl)c2)[C@H]2CCCN2[C@]12C(=O)Nc1c(Cl)cc(Cl)cc12 (single isomer, unassigned) [Example 238, (1′R,2′S,7a′R)-5,7-dichloro-N1′-(3,5-dichlorophenyl)-N2′-(1-methyl-1H-imidazol-2-yl)-2-oxo-1′,2′,5′,6′,7′,7a′-hexahydrospiro[indoline-3,3′-pyrrolizine]-1′,2′-dicarboxamide]",+ (NAUC “+” refers to an observed NAUC <140% of positive control),+ (NAUC “+” refers to an observed NAUC <140% of positive control),,,,
"CN(C(=O)[C@H]1[C@H]2CC(F)(F)CN2[C@]2(C(=O)Nc3c(Cl)cc(Cl)cc32)[C@H]1C(=O)NS(=O)(=O)c1ccccc1)c1cc(Cl)cc(Cl)c1 [Example 261, (1′R,2′S,3R,7a′R)-5,7-dichloro-N1′-(3,5-dichlorophenyl)-6′,6′-difluoro-N1′-methyl-2-oxo-N2′-(phenylsulfonyl)-1′,2′,5′,6′,7′,7a′-hexahydrospiro[indoline-3,3′-pyrrolizine]-1,2′-dicarboxamide]",,,+ (NAUC “+” refers to an observed NAUC <140% of positive control),,,
Cc1nn(-c2ccccc2)cc1N(CC1CC1)C(=O)[C@H]1[C@H]2CC(F)(F)CN2[C@]2(C(=O)Nc3c(Cl)cc(Cl)cc32)[C@H]1C(=O)O [Example 167],,,,+ (NAUC “+” refers to an observed NAUC <140% of positive control),+ (NAUC “+” refers to an observed NAUC <140% of positive control),
O=C(Nc1ccc2ncncc2c1)[C@H]1[C@H]2CC(F)(F)CN2[C@]2(C(=O)Nc3c(Cl)cc(Cl)cc32)[C@H]1C(=O)O [Example 140],,,,+ (NAUC “+” refers to an observed NAUC <140% of positive control),+ (NAUC “+” refers to an observed NAUC <140% of positive control),
O=C(Nc1cc(Cl)cc(Cl)c1)C1C2N(CCC2(F)F)C2(C(=O)Nc3c(Cl)cc(Cl)cc32)C1C(=O)O (stereo not drawn) [Example 59],,+ (NAUC “+” refers to an observed NAUC <140% of positive control),++ (NAUC “++” refers to an observed NAUC 170-140% of positive control),,,
O=C(O)[C@H]1[C@@H](C(=O)N(Cc2ccccc2)c2cc(Cl)cc(Cl)c2)[C@H]2CC(F)(F)CN2[C@]12C(=O)Nc1c(Cl)cc(Cl)cc12 [Example 149],,,,++ (NAUC “++” refers to an observed NAUC 170-140% of positive control),+++ (NAUC “+++” refers to an observed NAUC>170% of positive control),+ (NAUC “+” refers to an observed NAUC <140% of positive control)
"CN(C(=O)[C@@H]1[C@H](C(F)(F)F)NC2(C(=O)Nc3c(Cl)cc(Cl)cc32)[C@@H]1C(=O)O)c1cc(Cl)cc(Cl)c1 (single isomer, unassigned) [Example 269a]",+ (NAUC “+” refers to an observed NAUC <140% of positive control),+ (NAUC “+” refers to an observed NAUC <140% of positive control),+ (NAUC “+” refers to an observed NAUC <140% of positive control),,,
CN(C(=O)[C@H]1[C@H]2CC(F)(F)CN2C2(C(=O)Nc3c(Cl)cc(Cl)cc32)[C@H]1C(=O)O)c1cccc(C(F)(F)F)n1 (stereo partly drawn) [Example 292],++ (NAUC “++” refers to an observed NAUC 170-140% of positive control),+++ (NAUC “+++” refers to an observed NAUC>170% of positive control),+++ (NAUC “+++” refers to an observed NAUC>170% of positive control),,,
CN(C)C(=O)CN(C(=O)[C@H]1[C@H]2CC(F)(F)CN2[C@]2(C(=O)Nc3c(Cl)cc(Cl)cc32)[C@H]1C(=O)O)c1cc(Cl)cc(Cl)c1 [Example 153],,,,+ (NAUC “+” refers to an observed NAUC <140% of positive control),+ (NAUC “+” refers to an observed NAUC <140% of positive control),
CN(CC(C)(C)c1cccc(C(C)(C)C)c1)C(=O)[C@H]1[C@H]2CC(F)(F)CN2[C@]2(C(=O)Nc3c(Cl)cc(Cl)cc32)[C@H]1C(=O)O [Example 170],+++ (NAUC “+++” refers to an observed NAUC>170% of positive control),+ (NAUC “+” refers to an observed NAUC <140% of positive control),+ (NAUC “+” refers to an observed NAUC <140% of positive control),,,
